Results from patent US9144598B2, “Reverse thermal gels and their use in cell therapy” (University of Pittsburgh—Of the Commonwealth System of …, priority 2010, dated 2015).
No end group written: not given here.

What was measured:
[1] = test system: SH-SY5Y; test: 2D neuronal cell culture: cell attachment and neurite outgrowth; type: cell-based; settings: for neurite outgrowth without RA / neurite outgrowth with RA: 14-day culture; for neurite outgrowth with RA: 10 μM retinoic acid from day 7; for cell attachment on surface: 15% (wt) gel or laminin coated plate
Description: Cells, SH-SY5Y (ATCC, CRL-2266), were cultured in DMEM/F12 (1:1) medium with 10% fetal bovine serum (FBS), and 1% antibiotics. The cells were incubated in a humidified atmosphere with 5% CO2 at 37° C. The medium was refreshed every three days until the cells reached 95% confluence. The cells were harvested from the petri dish by incubation in 1 ml of trypsin solution (0.25%) for 5 min, neutralizing with 5 ml of serum-supplemented medium, centrifugation and removal of supernatant. The cell pellets were resuspended in serum-supplemented medium and 5×10^3 cells was used immediately for 2D neuronal cell culture.
Fifty μl of each solution (15%, wt) of pure reverse thermal gel and IKVAVS-GEL was transferred into 96-well plate on 37° C. heating plate. After 5 min, cell suspension (5×10^3 cells) in 150 μl of medium was added on top of the gel. For a control, the same number of cell suspension in 200 μl of medium was transferred into laminin coated 96-well plate. A 100 μl of medium was refreshed every two days. The cell growth was examined on a microscope. After 7-day culture, 10 μM of retinoic acid (RA) was added and neurite outgrowth was monitored on a microscope.

[2] = buffer
Description: The storage modus (G′) of the polymer solutions in phosphate buffered saline (PBS) solution was measured by rheometer from 20° C. to 55° C.

[3] = test system: Sprague Dawley rats; settings: rat, in vivo, sc
Description: In vivo biocompatibility was evaluated in Sprague Dawley rats.

IKVAVS-GEL: IKVAVS (SEQ ID NO: 21) conjugated reverse thermal gel (also: conjugated to reverse thermal gel; listed as Homo sapiens)
neurite outgrowth without RA [1]: much better than that on pure reverse thermal gel
neurite outgrowth with RA [1]: much better than that on pure reverse thermal gel
cell attachment on surface [1]: attached well

laminin [reference compound]
neurite outgrowth without RA [1]: some short neurite outgrowth
neurite outgrowth with RA [1]: much dense and longer neurite outgrowth
cell attachment on surface [1]: attached very well

poly(ethylene glycol)-poly(serinol hexamethylene urethane) [ESHU]
temperature range in which it remained gel [2]: 37-40 °C
inflammatory response [3]: well tolerated inflammatory response
